± gives the expanded uncertainty stated by the source.
Assay: mn = molality of the nth substance listed, in mol/kg
Details: 101 kPa, Liquid, Linear variable-path acoustic interferometer

CCCC[N+](CCCC)(CCCC)CCCC.[Br-] [tetrabutylammonium bromide] + O
speed of sound [m/s]
Details	283.15 K	298.15 K	318.15 K	338.15 K
m1 = 0.05	1463 ± 1.8	1508.4 ± 2	1544.6 ± 2	1558.6 ± 1.8
m1 = 0.075	1470.4 ± 1.9	1514.2 ± 1.8	1548.4 ± 1.8	1561.2 ± 1.8
m1 = 0.1	1477.8 ± 1.8	1520.2 ± 1.8	1552.9 ± 1.8	1564.2 ± 1.8
m1 = 0.2	1506.2 ± 2.4	1541.4 ± 1.8	1567.4 ± 1.8	1573.6 ± 1.8
m1 = 0.3	1532.5 ± 1.8	1561 ± 1.8	1580.7 ± 1.8	1582.4 ± 1.8
m1 = 0.5	1579 ± 1.9	1596.3 ± 1.9	1604.7 ± 1.8	1597 ± 1.8
m1 = 0.75	1628.2 ± 1.9	1632.7 ± 1.9	1627.3 ± 1.9	1610.3 ± 1.9
m1 = 1	1667.1 ± 1.9	1661.2 ± 1.9	1644.1 ± 1.9	1619.5 ± 1.9
m1 = 1.5	1718.2 ± 2	1697.4 ± 2	1663.3 ± 2	1626.6 ± 1.9
m1 = 2	1743.4 ± 2.1	1713.7 ± 2	1669.5 ± 2	1625 ± 2
m1 = 2.5	1752.2 ± 2.1	1718 ± 2.1	1668.5 ± 2.1	1619.5 ± 2
m1 = 3	1753.9 ± 2.1	1717.6 ± 2.1	1668.3 ± 2.1	1615.4 ± 2.1

C[N+](C)(C)C.[Br-] [tetramethylammonium bromide] + O
speed of sound [m/s]
Details	283.15 K	298.15 K	318.15 K	338.15 K
m1 = 0.05	1451 ± 1.7	1499.7 ± 1.8	1538.7 ± 1.9	1555.6 ± 1.8
m1 = 0.075	1452.9 ± 1.7	1500.3 ± 1.7	1540 ± 1.8	1556.2 ± 1.8
m1 = 0.1	1455 ± 1.7	1502.5 ± 1.7	1541.1 ± 1.8	1556.9 ± 1.8
m1 = 0.2	1462.1 ± 1.7	1508.1 ± 1.7	1545.8 ± 1.8	1560.9 ± 1.8
m1 = 0.3	1469.5 ± 1.7	1513.7 ± 1.8	1550.4 ± 1.8	1564.6 ± 1.8
m1 = 0.5	1483.1 ± 1.7	1524.7 ± 1.8	1559.3 ± 1.8	1571 ± 1.8
m1 = 0.75	1499.8 ± 1.7	1537.9 ± 1.8	1569.3 ± 1.8	1579.2 ± 1.8
m1 = 1	1515.7 ± 1.8	1550.8 ± 1.8	1578.6 ± 1.8	1587.3 ± 1.8
m1 = 1.5	1544.7 ± 1.8	1575.1 ± 1.8	1596.6 ± 1.8	1602 ± 1.8
m1 = 2	1571.1 ± 1.8	1597.2 ± 1.8	1613.1 ± 1.8	1615.7 ± 1.8
m1 = 2.5	1595.4 ± 1.8	1617 ± 1.8	1628.8 ± 1.8	1628.9 ± 1.8
m1 = 3	1617.4 ± 1.8	1633.7 ± 1.9	1644.7 ± 1.9	1641.3 ± 1.9

[2H]O[2H] [water-d2] + CCCC[N+](CCCC)(CCCC)CCCC.[Br-]
speed of sound [m/s]
Details	283.15 K	298.15 K	318.15 K	338.15 K
m2 = 0.05	1366.8 ± 1.8	1414 ± 2	1451.5 ± 2	–
m2 = 0.075	1375.9 ± 3.5	1421.1 ± 1.8	1456.5 ± 1.8	1470.5 ± 1.7
m2 = 0.1	1384.4 ± 1.8	–	1461.4 ± 1.8	1474.3 ± 1.7
m2 = 0.2	1419.1 ± 1.8	1453.9 ± 1.8	1479.9 ± 1.8	1486.6 ± 1.8
m2 = 0.3	1450.2 ± 1.8	1478.2 ± 1.8	–	1498.1 ± 1.8
m2 = 0.5	1506 ± 1.8	–	1525.8 ± 1.8	1518.2 ± 1.8
m2 = 0.75	1562.5 ± 1.9	1562.4 ± 1.9	1554.8 ± 1.8	1536.6 ± 1.8
m2 = 1	1605.4 ± 1.9	1594.2 ± 1.9	1576.2 ± 1.9	1550.2 ± 1.9
m2 = 1.5	1658.6 ± 2	1634.9 ± 2	1601 ± 1.9	1563.5 ± 1.9
m2 = 2	1680.5 ± 2	1652.1 ± 2	1610 ± 2	1566.4 ± 2
m2 = 2.5	1686.3 ± 2.1	1657 ± 2.1	1611.3 ± 2	1563.7 ± 2
m2 = 3	1688.9 ± 2.1	1661.4 ± 2.1	1615.2 ± 2.1	1564 ± 2.1

[2H]O[2H] [water-d2] + C[N+](C)(C)C.[Br-]
speed of sound [m/s]
Details	283.15 K	298.15 K	318.15 K	338.15 K
m2 = 0.05	1352 ± 1.7	1403 ± 1.9	1443.9 ± 1.9	1462.3 ± 1.7
m2 = 0.075	1354.7 ± 1.7	1405.2 ± 1.7	1445.4 ± 1.7	1463.6 ± 1.8
m2 = 0.1	1357.5 ± 1.7	1407.4 ± 1.7	1447.1 ± 1.7	1465.1 ± 1.7
m2 = 0.2	1366.7 ± 2	1414.7 ± 1.7	1452.9 ± 1.7	1469.8 ± 1.9
m2 = 0.3	1376.5 ± 1.7	1422.2 ± 1.7	1458.6 ± 1.7	1474.5 ± 1.7
m2 = 0.5	1393.7 ± 1.7	1436.4 ± 1.7	1469.8 ± 1.7	1484.1 ± 1.7
m2 = 0.75	1414.4 ± 1.7	1453.8 ± 1.7	1483.7 ± 1.7	1495.7 ± 1.7
m2 = 1	1433.4 ± 1.7	1470.2 ± 1.7	–	1506.9 ± 1.8
m2 = 1.5	1469.8 ± 1.7	1500.5 ± 1.8	1521.2 ± 1.8	1527.4 ± 1.8
m2 = 2	1502.4 ± 1.8	1528 ± 1.8	1543.6 ± 1.8	1546.4 ± 1.8
m2 = 2.5	1532.1 ± 1.8	1552.9 ± 1.8	1564.3 ± 1.8	1564.2 ± 1.8
m2 = 3	1560.4 ± 1.8	1575.5 ± 1.8	1583.5 ± 1.8	1580.8 ± 1.8

Source: the NIST ThermoML archive (doi:10.1021/je800908h)
